Assay [1] addresses T1, Type-1 angiotensin II receptor (Oryctolagus cuniculus, UniProt P34976).
T1 sequence (P34976 whole entry): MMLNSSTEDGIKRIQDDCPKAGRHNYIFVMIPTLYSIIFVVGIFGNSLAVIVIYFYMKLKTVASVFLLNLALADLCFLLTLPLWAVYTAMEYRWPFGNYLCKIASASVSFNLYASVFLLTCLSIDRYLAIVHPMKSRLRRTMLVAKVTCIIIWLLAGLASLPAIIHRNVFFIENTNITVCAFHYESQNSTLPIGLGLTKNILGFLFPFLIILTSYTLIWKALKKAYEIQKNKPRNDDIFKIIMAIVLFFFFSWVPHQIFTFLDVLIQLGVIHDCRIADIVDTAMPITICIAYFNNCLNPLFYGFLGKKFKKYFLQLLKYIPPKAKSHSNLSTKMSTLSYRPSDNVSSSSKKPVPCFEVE
The assay is described as follows: Tested for its ability to displace the specific binding ligand [125I]-Sar 1,lle8-AlI from rabbit aortic membrane (AT1 receptor).

In assay [2] the target is T2, Type-2 angiotensin II receptor (Rattus norvegicus, UniProt P35351).
T2 sequence (P35351 whole entry): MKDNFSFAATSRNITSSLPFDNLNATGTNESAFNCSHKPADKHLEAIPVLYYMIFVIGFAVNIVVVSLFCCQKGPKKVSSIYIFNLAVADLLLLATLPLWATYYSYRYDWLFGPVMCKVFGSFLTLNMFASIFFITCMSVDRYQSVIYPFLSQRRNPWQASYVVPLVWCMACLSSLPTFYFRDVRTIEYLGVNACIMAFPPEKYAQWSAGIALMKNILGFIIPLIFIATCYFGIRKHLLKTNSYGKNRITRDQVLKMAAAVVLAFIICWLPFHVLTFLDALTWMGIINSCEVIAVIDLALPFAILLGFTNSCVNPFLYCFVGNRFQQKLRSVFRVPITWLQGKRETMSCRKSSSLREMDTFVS
Kind of assay: Tested for its ability to displace the specific binding ligand [125I]-Sar 1,lle8-AlI from rat midbrain membrane (AT2 receptor). Format: tissue-based.

Where only a bound is given, the exact number is not on record here.

For the compound `CCCc1cc(Cn2c(CC)nc3c(C)cc(C)nc32)ccc1OC(C(=O)O)c1ccccc1C` (centres undefined), the IC50 in assay [1] came to 11 nM; in assay [2] it was 2400 nM.

Take `CCCCc1nc2ccccc2n1Cc1ccc(OC(C(=O)O)c2ccccc2)cc1` (centres undefined): the IC50 in assay [1] came out at 93 nM; in assay [2] it was 2000 nM.

Consider `CCc1nc2c(C)cc(C)nc2n1Cc1ccc(OC(C(=O)O)c2ccccc2)c(C(C)=O)c1` (centres undefined), for which the IC50 in assay [1] amounted to 62 nM; in assay [2], 610 nM.

Take `CCCc1cc(Cn2c(CC)nc3c(C)cc(C)nc32)ccc1OC(C(=O)O)c1ccccc1Cl` (centres undefined): the 50% inhibitory concentration (IC50) in assay [1] was 8 nM; in assay [2], above 1000 nM.

Consider `CCCCc1nc2ccc(C)cc2c(=O)n1Cc1ccc(OC(C(=O)O)c2ccccc2)cc1` (centres undefined), for which the IC50 in assay [1] was 260 nM; in assay [2], 760 nM.

On to `CCc1nc2c(C)cc(C)nc2n1Cc1ccc(OC(C(=O)O)c2ccccc2)c(C(=O)c2ccccc2)c1` (centres undefined), for which the IC50 is 120 nM in assay [1] and 60 nM in assay [2].

`C=CCc1cc(Cn2c(CC)nc3c(C)cc(C)nc32)cc(Cl)c1OC(C(=O)O)c1ccccc1` (centres undefined): the IC50 in assay [1] is 2.2 nM; in assay [2], 760 nM.

With `C=CCc1cc(Cn2c(CC)nc3c(C)cc(C)nc32)ccc1OC(C(=O)O)c1ccccc1` (centres undefined), the IC50 in assay [1] stood at 20 nM; in assay [2] it was 270 nM.

Turning to `CCCc1cc(Cn2c(CC)nc3c(C)cc(C)nc32)ccc1OC(C(=O)O)c1ccccc1OC` (centres undefined), the concentration for half-maximal inhibition (IC50) in assay [1] worked out at 9.5 nM; in assay [2], 1200 nM.

With `CCc1nc2c(C)cc(C)nc2n1Cc1ccc(OC(C(=O)O)c2ccccc2)c(Cl)c1` (centres undefined), the IC50 in assay [1] turned out to be 15 nM; in assay [2], 720 nM.

With `CCc1nc2c(C)cc(C)nc2n1Cc1ccc(OC(C(=O)O)c2ccccc2)c(C(C)C)c1` (centres undefined), the IC50 in assay [1] is 30 nM; in assay [2], 3300 nM.

As for `CCc1cc(Cn2c(CC)nc3c(C)cc(C)nc32)ccc1OC(C(=O)O)c1ccccc1` (centres undefined), the IC50 in assay [1] is 12 nM; in assay [2], 410 nM.

`CCc1nc2c(C)cc(C)nc2n1Cc1ccc(OC(C(=O)O)c2ccccc2)c(OC)c1` (centres undefined): the IC50 turned out to be 170 nM in assay [1] and 2900 nM in assay [2].

`CCc1nc2c(C)cc(C)nc2n1Cc1ccc(OC(C(=O)O)c2ccccc2)cc1` (centres undefined): the IC50 in assay [1] amounted to 29 nM; in assay [2], 2000 nM.

For `CCc1nc2c(C)cc(C)nc2n1Cc1ccc(OC(C(=O)O)c2ccccc2)c(Cc2ccccc2)c1` (centres undefined), the IC50 in assay [1] came out at 95 nM; in assay [2], 800 nM.

On to `CCCc1nc2c(C)ccnc2n1Cc1ccc(OC(C(=O)O)c2ccccc2)cc1` (centres undefined), for which the IC50 came to 65 nM in assay [1] and 3400 nM in assay [2].

Regarding `CCc1nc2c(C)cc(C)nc2n1Cc1ccc(OC(C(=O)O)c2ccccc2Cl)cc1` (centres undefined), the results for the IC50 in assay [1] and in assay [2] were 10 nM and 15000 nM, respectively.

For `CCc1nc2c(C)cc(C)nc2n1Cc1cc(Cl)c(OC(C(=O)O)c2ccccc2)c(Cl)c1` (centres undefined), the results for the IC50 in assay [1] and in assay [2] were 21 nM and 9000 nM, respectively.

Consider `CCc1nc2c(C)cc(C)nc2n1Cc1ccc(OC(C(=O)O)c2ccccc2C)cc1` (centres undefined), for which the values for the IC50 in assay [1] and in assay [2] were 6 nM and 5200 nM, respectively.

For the compound `CCc1nc2c(C)cc(C)nc2n1Cc1ccc(OC(C(=O)O)c2ccccc2)c(C(C)(C)C)c1` (centres undefined), the values for the IC50 in assay [1] and in assay [2] were 50 nM and 300 nM, respectively.

On to `CCc1nc2c(C)cc(C)nc2n1Cc1cc(Cl)c(OC(C(=O)O)c2ccccc2)c(OC)c1` (centres undefined), for which the IC50 amounted to 16 nM in assay [1] and 7800 nM in assay [2].

As for `CCOc1cc(Cn2c(CC)nc3c(C)cc(C)nc32)ccc1OC(C(=O)O)c1ccccc1` (centres undefined), the figures for the IC50 in assay [1] and in assay [2] were 140 nM and 1200 nM, respectively.

Regarding `CCc1nc2c(C)cc(C)nc2n1Cc1ccc(OC(C(=O)O)c2ccccc2C)c(Cl)c1` (centres undefined), the concentration for half-maximal inhibition (IC50) in assay [1] was determined as 3.4 nM; in assay [2] it was 1700 nM.

Consider `CCc1nc2c(C)cc(C)nc2n1Cc1ccc(OC(C(=O)O)c2ccccc2)c(C)c1` (centres undefined), for which the IC50 was 14 nM in assay [1] and 940 nM in assay [2].

As to `CCc1nc2c(C)cc(C)nn2c1Cc1ccc(OC(C(=O)O)c2ccccc2)cc1` (centres undefined), the values for the IC50 in assay [1] and in assay [2] were 69 nM and 3000 nM, respectively.

Turning to `CCCc1cc(Cn2c(CC)nc3c(C)cc(C)nc32)ccc1OC(C(=O)O)c1ccccc1` (centres undefined), the results for the IC50 in assay [1] and in assay [2] were 11 nM and 47 nM, respectively.

As for `CCCCc1cc(Cn2c(CC)nc3c(C)cc(C)nc32)ccc1OC(C(=O)O)c1ccccc1` (centres undefined), the results for the IC50 in assay [1] and in assay [2] were 12 nM and 140 nM, respectively.

Usually IC50 stands for the concentration that inhibits the measured activity by half. A lower IC50 goes with higher potency.

Values taken from ChEMBL document CHEMBL1150547, “-Phenoxyphenylacetic acid derived angiotensin II antagonists with low nanomolar AT1/AT2 receptor subtype affinity (Part II)” (Bioorg Med Chem Lett, 1995).
